# T1: human IL-27 (Homo sapiens, UniProt Q14213+Q8NEV9)
# T1 construct: made in house
# T1 sequence (Q8NEV9 29-243): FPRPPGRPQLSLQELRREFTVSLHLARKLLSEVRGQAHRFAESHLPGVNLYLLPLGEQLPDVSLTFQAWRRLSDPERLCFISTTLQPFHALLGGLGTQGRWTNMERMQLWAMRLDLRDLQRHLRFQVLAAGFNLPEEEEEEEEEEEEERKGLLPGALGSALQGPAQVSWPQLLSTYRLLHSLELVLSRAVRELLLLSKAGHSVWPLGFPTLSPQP
# T1 sequence (Q14213 21-229): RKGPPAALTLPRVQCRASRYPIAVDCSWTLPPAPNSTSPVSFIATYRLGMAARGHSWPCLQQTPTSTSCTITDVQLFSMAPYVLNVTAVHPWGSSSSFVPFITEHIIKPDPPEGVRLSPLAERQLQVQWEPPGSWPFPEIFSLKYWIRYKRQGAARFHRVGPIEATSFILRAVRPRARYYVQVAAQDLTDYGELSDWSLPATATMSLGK
# B1: WSX-1 ECD: IL-27 antagonist; WSX-1 polypeptide that lacks the intracellular and transmembrane domains (protein, UniProt Q6UWB1 33-516, looked up)
# extracellular domain: QGSAGPLQCYGVGPLGDLNCSWEPLGDLGAPSELHLQSQKYRSNKTQTVAVAAGRSWVAIPREQLTMSDKLLVWGTKAGQPLWPPVFVNLETQMKPNAPRLGPDVDFSEDDPLEATVHWAPPTWPSHKVLICQFHYRRCQEAAWTLLEPELKTIPLTPVEIQDLELATGYKVYGRCRMEKEEDLWGEWSPILSFQTPPSAPKDVWVSGNLCGTPGGEEPLLLWKAPGPCVQVSYKVWFWVGGRELSPEGITCCCSLIPSGAEWARVSAVNATSWEPLTNLSLVCLDSASAPRSVAVSSIAGSTELLVTWQPGPGEPLEHVVDWARDGDPLEKLNWVRLPPGNLSALLPGNFTVGVPYRITVTAVSASGLASASSVWGFREELAPLVGPTLWRLQDAPPGTPAIAWGEVPRHQLRGHLTHYTLCAQSGTSPSVCMNVSGNTQSVTLPDLPWGPCELWVTASTIAGQGPPGPILRLHLPDNTLRWK
# modifications: extracellular domain
# notes: IL-27 antagonist; WSX-1 polypeptide that lacks the intracellular and transmembrane domains
# Legend:
# [1] = test system: primary human bronchial smooth muscle cells; assay: CXCL10 expression with combinations of TNF-α, IL-27 and fluticasone (bDNA assay); type: cell-based; details: for CXCL10 expression, factor alone: single factor alone (5 ng/ml TNF-α; 1 μg/ml linked IL-27; IFN-γ), FIG. 4
# Protocol: Primary human bronchial smooth muscle cells were cultured in the presence of 5 ng/ml TNF-αalone, 5 ng/ml TNF-α and 25 nM fluticasone; 1 μg/ml linked IL-27; 5 ng/ml TNF-α and 30 ng/ml IL-27; or 5 ng/ml TNF-α, 25 nM fluticasone, and 30 ng/ml IL-27. CXCL10 expression was determined by bDNA assay.
# [2] = test system: primary human bronchial epithelial cells; assay: CXCL9 (MIG) / CXCL10 induction in air-liquid interface bronchial epithelial cells (ELISA); type: cell-based; details: normal donor; with and without 25 nM fluticasone; FIG. 9
# [3] = test system: primary human bronchial smooth muscle cells; assay: CXCL10 expression with TNF-α, fluticasone and IL-12 family cytokine supernatants (bDNA assay); type: cell-based; details: 5 ng/ml TNF-α, 25 nM fluticasone, 293T supernatant; FIG. 5
# Protocol: Primary human bronchial smooth muscle cells were cultured in the presence of 5 ng/ml TNF-α, 25 nM fluticasone, and a supernatant from 293T cells expressing IL-27 subunit EBI3 alone, IL-27 subunit p28 alone, IL-12 (comprised of p35 and p40), IL-35 (comprised of p35 and EBI3), IL-23 (comprised of p19 and p40), or IL-27 (comprised of p28 and EBI3). CXCL10 expression was determined by bDNA assay.
# [4] = test system: primary human bronchial smooth muscle cells; assay: Screen for factors inducing steroid resistance: CXCL10 and CD38 expression (bDNA) in bronchial smooth muscle cells with TNF-α and fluticasone; type: cell-based; details: 5 ng/ml TNF-α, 25 nM fluticasone
# Protocol: In order to identify factors that induce a steroid-resistant state, an assay was set up as follows. Primary human bronchial smooth muscle cells were cultured in the presence of 5 ng/ml TNF-α and 25 nM fluticasone and a test substance. Steroid sensitivity was determined by detecting expression levels of CXCL10 (IP-10) and CD38 using a bDNA assay (QuantiGene® Plex 2.0; Panomics, Santa Clara, Calif.). Expression of each of those genes is suppressed by steroids, such as fluticasone. If a factor induces a steroid-insensitive state, expression of those genes should increase. Interferon family proteins were included as test substances as positive controls.
# Using this assay, a library of over 4000 secreted and extracellular domain protein test substances were screened to identify test substances that induce a steroid-resistant state. The test substances were individually expressed in 293T cells and the cell supernatants used to test each substance in the assay.
# [5] = test system: primary human bronchial smooth muscle cells; assay: Dose dependence of IL-27-induced steroid insensitivity (CXCL10/CD38 bDNA assay); type: cell-based; details: 5 ng/ml TNF-α, 25 nM fluticasone
# Protocol: Primary human bronchial smooth muscle cells were cultured in the presence of 5 ng/ml TNF-α, 25 nM fluticasone, and increasing concentrations of linked IL-27 (Cat. No. 2526-IL; R&D Systems, Minneapolis, Minn.). CXCL10 and CD38 expression levels were determined by bDNA assay.
# [6] = test system: primary bronchial smooth muscle cells (BSMCs); assay: WSX-1 expression in bronchial smooth muscle cells treated with factors (quantitative RT-PCR); type: cell-based, human; details: 5 ng/ml TNF-α; FIG. 7
# Protocol: The effect of various factors on WSX-1 expression was then determined in primary bronchial smooth muscle cells (BSMCs). The BSMCs were treated with 5 ng/ml TNF-α, 10 ng/ml IFN-γ, 5 ng/ml TNF-α and 10 ng/ml IFN-γ, or 5 ng/ml TNF-α and 10 ng/ml IFN-γ and 25 nM fluticasone. WSX-1 expression was determined by quantitative RT-PCR and normalized to RPL19.
# human IL-27 = target: T1, human IL-27; assay: Inhibition of IL-27-induced CXCL10 expression in bronchial smooth muscle cells (ELISA); type: cell-based; details: 0.2 to 20 μg/mL preincubated with 5 ng/mL linked or native human IL-27 and 5 ng/mL TNF-α; FIG. 11
# Protocol: Various concentrations of an IL-27 antagonist, WSX-1 ECD (0.2 to 20 μg/mL), were preincubated with 5 ng/mL of human IL-27 in the presence of 5 ng/mL of human TNF-α. Both linked and native human IL-27 were tested. Human linked IL-27 was obtained from R&D Systems and is produced with a linker between the p28 subunit and the EBI3 subunit. Native IL-27 was produced and purified in house by transfecting mammalian cells with separate vectors expressing each subunit and purifying the resulting p28/EBI3 (IL-27) heterodimer from the cell culture supernatant. Following the preincubation of WSX-1 ECD with IL-27 and TNF-α, the stimulus was added to primary human bronchial smooth muscle cells in culture. CXCL10 expression was determined by ELISA.
# Various concentrations of a polyclonal antibody against human IL-27 (0.4 to 50 μg/mL; R&D Systems) were preincubated with 10 ng/mL of native human IL-27 in the presence of 5 ng/mL of human TNF-α. Following the preincubation of polyclonal antibody with IL-27 and TNF-α, the stimulus was added to primary human bronchial smooth muscle cells in culture. CXCL10 expression was determined by ELISA.
molecule,measurement,setting,value
"IFN-γ: interferon family protein, positive control in the screen","CXCL10 expression, factor alone",[1],did not induce CXCL10 expression
IL-27: heterodimeric cytokine comprising the subunits p28 and EBI3; linked IL-27 from R&D Systems (Cat. No. 2526-IL),steroid sensitivity of IL-27 induction of CXCL10 expression,[2],steroid-insensitive at all concentrations of IL-27
same,synergistic increase of CXCL10 expression in the presence of TNF-α and fluticasone,[3],synergistically increased CXCL10 expression
same,fold-change in CXCL10 expression (screen),"[4]; 293T supernatant of test substance, FIG. 1",positive data points
same,effect on CD38 expression (two retests),[4]; FIG. 2,positive data points
same,steroid insensitivity (CXCL10 expression in the presence of fluticasone),[5]; increasing concentrations of linked IL-27,induced steroid-insensitivity in a dose-dependent manner
same,expression of CD38,"[5]; increasing concentrations of linked IL-27, data not shown",increased with increasing concentration
same,EC50,"[5]; linked IL-27, FIG. 3, read-out: EC50 for CXCL10 expression in the presence of fluticasone",0.372 nM
same,"CXCL10 expression, in combination with TNF-α",[1]; 5 ng/ml TNF-α and 30 ng/ml IL-27,very high CXCL10 expression
same,"CXCL10 expression, factor alone",[1],did not affect expression of CXCL10
TNF-α,"CXCL10 expression, factor alone",[1],increased expression of CXCL10
same,WSX-1 expression normalized to RPL19,[6],up-regulated
"C[C@@H]1C[C@H]2[C@@H]3C[C@H](F)C4=CC(=O)C=C[C@]4(C)[C@@]3(F)[C@@H](O)C[C@]2(C)[C@@]1(O)C(=O)SCF [fluticasone, reference compound]",effect on CXCL10 expression induced by IL-27 and TNF-α,"[1]; 5 ng/ml TNF-α, 25 nM fluticasone, 30 ng/ml IL-27",no effect
B1,inhibition of IL-27-induced expression of CXCL10,human IL-27,inhibited IL-27-induced expression of CXCL10

# Source: US20130189262A1, “IL-27 Antagonists for Treating Inflammatory Diseases” (Five Prime Therapeutics, Inc., priority 2011, published 2013)
